Experimental data as given in ChEMBL document CHEMBL1201862, “PubChem BioAssay data set” (2004).
Activity calls are given as the source filed them.

Columns and labels:
[1] = target: Voltage-dependent T-type calcium channel subunit alpha-1H (Homo sapiens, UniProt O95180); test: Cav3.2 T-type channel inhibitors, cell-based, synthetic library set 1, calcium flux (AID 493022); type: functional
[2] = target: Cystic fibrosis transmembrane conductance regulator/Golgi-associated PDZ and coiled-coil motif-containing protein (Homo sapiens, UniProt P13569+Q9HD26); test: CAL PDZ peptide-binding inhibitors, dose response, biochemical, fluorescence polarization, Cerulean-tagged CAL PDZ, cherry-picks (AID 504773)
[3] = target: T1, Kappa-type opioid receptor (Homo sapiens, UniProt P41145); type: functional
[4] = HepG2 cell cytotoxicity, dose response, cytotoxicity control for non-replicating M. tuberculosis project (AID 489018); type: functional; conditions: Mycobacterium tuberculosis
Beta-galactosidase [5] = target: T2, Beta-galactosidase (Escherichia coli, UniProt Q8VNN2); type: functional
Nonstructural protein 1 = Nonstructural protein 1 (Influenza A virus, UniProt Q194T2); type: functional, Influenza A virus (A/California/07/2009(H1N1))
[6] = target: T3, Type-1 angiotensin II receptor (Homo sapiens, UniProt P30556); test: AT1 receptor antagonists, dose response, selectivity assay for APJ receptor antagonist project, cell-based, uHTS hits (AID 463214); type: functional;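 also: antagonist potency against angiotensin II stimulated AT1 response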
T3 sequence (P30556 whole entry): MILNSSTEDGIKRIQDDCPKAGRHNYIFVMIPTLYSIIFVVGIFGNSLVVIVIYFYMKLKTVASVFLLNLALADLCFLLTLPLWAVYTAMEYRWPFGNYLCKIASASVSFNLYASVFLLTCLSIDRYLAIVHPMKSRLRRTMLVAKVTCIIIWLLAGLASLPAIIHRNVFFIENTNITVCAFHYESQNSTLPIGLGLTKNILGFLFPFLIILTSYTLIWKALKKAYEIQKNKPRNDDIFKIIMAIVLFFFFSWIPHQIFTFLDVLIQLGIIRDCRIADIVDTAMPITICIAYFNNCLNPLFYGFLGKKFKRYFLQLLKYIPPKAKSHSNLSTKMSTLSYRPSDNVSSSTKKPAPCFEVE

cells = type: functional
Beta-galactosidase [7] = target: T2, Beta-galactosidase; test: PubChem AID 485352; type: functional
[8] = Vero E6 cell cytotoxicity, dose response, cytotoxicity control for non-replicating M. tuberculosis project, secondary assay (AID 492998); type: functional, VeroE6; conditions: Vero C1008
INS1 = test: beta cell apoptosis inhibitors, cytokine rescue, dose response, luminescence, retest (AID 449756); type: functional, cell-based; conditions: Rattus norvegicus;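 also: cell death triggered by IL-1 beta plus TNF-alpha plus IFN-gamma mixture; protective hits raise ATP signal compared with cytokine alone wells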
[9] = target: T1, Kappa-type opioid receptor; type: functional; remark: listed apart in the source
[10] = target: T4, Microphthalmia-associated transcription factor (Homo sapiens, UniProt O75030); test: TRPM1 promoter luciferase signal decrease, dose response, MITF inhibitor project, cell-based, SK-MEL-5, cherry-picked, set 3 (AID 493073); type: functional
T4 sequence (O75030 whole entry): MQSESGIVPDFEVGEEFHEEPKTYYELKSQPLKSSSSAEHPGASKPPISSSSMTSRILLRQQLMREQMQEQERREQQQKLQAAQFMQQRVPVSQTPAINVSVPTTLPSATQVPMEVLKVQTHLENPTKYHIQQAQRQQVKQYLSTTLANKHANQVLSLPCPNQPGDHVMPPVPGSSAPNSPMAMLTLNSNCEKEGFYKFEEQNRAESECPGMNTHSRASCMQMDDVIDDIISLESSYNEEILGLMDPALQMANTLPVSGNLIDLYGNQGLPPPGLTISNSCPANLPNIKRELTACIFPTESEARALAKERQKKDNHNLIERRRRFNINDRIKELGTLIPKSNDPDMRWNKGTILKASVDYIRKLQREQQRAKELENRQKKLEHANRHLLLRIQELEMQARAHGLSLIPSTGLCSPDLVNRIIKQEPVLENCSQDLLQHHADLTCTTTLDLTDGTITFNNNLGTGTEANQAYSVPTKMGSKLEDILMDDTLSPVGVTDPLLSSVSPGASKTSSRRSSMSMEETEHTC

[11] = THP-1 cell cytotoxicity, dose response, cytotoxicity control for Vif-APOBEC3G degradation inhibitor project, THP-1 cells (AID 1117359); type: functional; conditions: Human immunodeficiency virus 1, THP-1
[12] = THP-1 cell cytotoxicity, dose response, cytotoxicity control for non-replicating M. tuberculosis project (AID 489025); type: functional
[13] = target: T5, Neuropeptides B/W receptor type 1 (Homo sapiens, UniProt P48145); test: GPR7 antagonist potency, late-stage follow-up, cell-based, fluorescence, dose response (AID 463251); type: functional
T5 sequence (P48145 whole entry): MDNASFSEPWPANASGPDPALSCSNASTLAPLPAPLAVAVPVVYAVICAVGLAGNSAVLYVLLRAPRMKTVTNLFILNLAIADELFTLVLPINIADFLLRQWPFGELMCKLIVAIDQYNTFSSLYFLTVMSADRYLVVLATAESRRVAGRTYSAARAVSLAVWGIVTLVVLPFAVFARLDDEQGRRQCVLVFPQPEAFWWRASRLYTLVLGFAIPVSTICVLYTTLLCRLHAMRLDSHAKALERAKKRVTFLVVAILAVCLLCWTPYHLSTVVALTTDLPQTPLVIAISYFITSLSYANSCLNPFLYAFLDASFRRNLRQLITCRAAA

[14] = target: Melanin-concentrating hormone receptor 1 (Homo sapiens, UniProt Q99705); test: Late-stage fluorescence-based counterscreen for antagonists of the G-protein coupled receptor 7 (GPR7): cell-based dose response assay to identify antagonists of the melanin-concentrating hormone receptor 1 (MCHR1). [Related pubchem assays (depositor defined):AID1861, AID1880, AID1952, AID2148, AID2251, AID2257, AID485339]; type: functional;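 also: stimulated with 30 nM MCH peptide agonist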
Protein Rev = Protein Rev (Human immunodeficiency virus type 1 group M subtype B (isolate HXB2)(HIV-1), UniProt P04618); test: inhibitors of Rev binding to RRE RNA, dose response, biochemical, fluorescence polarization, HIV-1 (AID 434976); design: species or system Human immunodeficiency virus 1
Fibrinogen beta chain [15] = target: T6, Fibrinogen beta chain (Homo sapiens, UniProt P02675); test: Fluorescence polarization-based biochemical high throughput dose response assay to identify inhibitors that disrupt the binding of a cyclic peptide (Tn6) to the fibrin proteolytic product D-Dimer and fragment E complex [DD(E )].
[16] = target: T7, Zinc finger protein mex-5 (Caenorhabditis elegans, UniProt Q9XUB2); test: MEX-5/TCR-2 RNA interaction inhibitors, dose response, biochemical, C. elegans, fluorescence polarization (AID 1960)
T7 sequence (Q9XUB2 whole entry): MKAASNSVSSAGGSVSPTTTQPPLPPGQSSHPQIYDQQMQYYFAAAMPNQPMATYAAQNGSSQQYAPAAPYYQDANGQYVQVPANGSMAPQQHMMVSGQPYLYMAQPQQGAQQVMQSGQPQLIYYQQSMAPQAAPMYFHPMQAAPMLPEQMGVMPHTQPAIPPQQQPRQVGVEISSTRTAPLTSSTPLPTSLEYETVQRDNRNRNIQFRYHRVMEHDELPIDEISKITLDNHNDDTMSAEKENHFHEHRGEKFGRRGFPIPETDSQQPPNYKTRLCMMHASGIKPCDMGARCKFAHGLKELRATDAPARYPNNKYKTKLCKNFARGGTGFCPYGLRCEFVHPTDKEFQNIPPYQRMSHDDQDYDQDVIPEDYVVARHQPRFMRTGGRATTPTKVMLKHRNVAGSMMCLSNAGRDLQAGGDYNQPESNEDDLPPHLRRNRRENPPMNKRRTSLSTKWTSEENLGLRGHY

[17] = target: T8, RNA-binding protein pos-1 (Caenorhabditis elegans, UniProt G5EF15); test: inhibitors of POS-1/mex-3 RNA binding, dose response, biochemical, fluorescence polarization (AID 1964);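 also: purified POS-1 fused to maltose binding protein made in E. coli; potency of compounds blocking POS-1 binding to fluorescent RNA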
T8 sequence (G5EF15 whole entry): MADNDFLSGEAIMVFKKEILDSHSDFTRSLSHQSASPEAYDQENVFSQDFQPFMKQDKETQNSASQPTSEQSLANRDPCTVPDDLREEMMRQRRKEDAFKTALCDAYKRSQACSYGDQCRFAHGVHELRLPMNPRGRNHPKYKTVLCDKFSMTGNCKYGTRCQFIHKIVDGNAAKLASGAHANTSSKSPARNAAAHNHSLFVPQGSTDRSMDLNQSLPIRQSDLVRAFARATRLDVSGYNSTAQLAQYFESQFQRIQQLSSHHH

[18] = target: Female germline-specific tumor suppressor gld-1 (Caenorhabditis elegans, UniProt Q17339); test: inhibitors of GLD-1 binding to TGE RNA, dose response, biochemical, fluorescence polarization, C. elegans (AID 2802);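 also: fluorescence polarization of labeled TGE RNA bound by purified gld-1 protein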
Protein S100-A4 = Protein S100-A4 (Homo sapiens, UniProt P26447); test: S100A4-myosin IIA binding inhibitor potency, dose response, biochemical, fluorescence polarization, cherry-picked hits (AID 687001); type: functional
[19] = target: T9, Histone-lysine N-methyltransferase NSD2 (Homo sapiens, UniProt O96028); type: biochemical
T9 sequence (O96028 whole entry): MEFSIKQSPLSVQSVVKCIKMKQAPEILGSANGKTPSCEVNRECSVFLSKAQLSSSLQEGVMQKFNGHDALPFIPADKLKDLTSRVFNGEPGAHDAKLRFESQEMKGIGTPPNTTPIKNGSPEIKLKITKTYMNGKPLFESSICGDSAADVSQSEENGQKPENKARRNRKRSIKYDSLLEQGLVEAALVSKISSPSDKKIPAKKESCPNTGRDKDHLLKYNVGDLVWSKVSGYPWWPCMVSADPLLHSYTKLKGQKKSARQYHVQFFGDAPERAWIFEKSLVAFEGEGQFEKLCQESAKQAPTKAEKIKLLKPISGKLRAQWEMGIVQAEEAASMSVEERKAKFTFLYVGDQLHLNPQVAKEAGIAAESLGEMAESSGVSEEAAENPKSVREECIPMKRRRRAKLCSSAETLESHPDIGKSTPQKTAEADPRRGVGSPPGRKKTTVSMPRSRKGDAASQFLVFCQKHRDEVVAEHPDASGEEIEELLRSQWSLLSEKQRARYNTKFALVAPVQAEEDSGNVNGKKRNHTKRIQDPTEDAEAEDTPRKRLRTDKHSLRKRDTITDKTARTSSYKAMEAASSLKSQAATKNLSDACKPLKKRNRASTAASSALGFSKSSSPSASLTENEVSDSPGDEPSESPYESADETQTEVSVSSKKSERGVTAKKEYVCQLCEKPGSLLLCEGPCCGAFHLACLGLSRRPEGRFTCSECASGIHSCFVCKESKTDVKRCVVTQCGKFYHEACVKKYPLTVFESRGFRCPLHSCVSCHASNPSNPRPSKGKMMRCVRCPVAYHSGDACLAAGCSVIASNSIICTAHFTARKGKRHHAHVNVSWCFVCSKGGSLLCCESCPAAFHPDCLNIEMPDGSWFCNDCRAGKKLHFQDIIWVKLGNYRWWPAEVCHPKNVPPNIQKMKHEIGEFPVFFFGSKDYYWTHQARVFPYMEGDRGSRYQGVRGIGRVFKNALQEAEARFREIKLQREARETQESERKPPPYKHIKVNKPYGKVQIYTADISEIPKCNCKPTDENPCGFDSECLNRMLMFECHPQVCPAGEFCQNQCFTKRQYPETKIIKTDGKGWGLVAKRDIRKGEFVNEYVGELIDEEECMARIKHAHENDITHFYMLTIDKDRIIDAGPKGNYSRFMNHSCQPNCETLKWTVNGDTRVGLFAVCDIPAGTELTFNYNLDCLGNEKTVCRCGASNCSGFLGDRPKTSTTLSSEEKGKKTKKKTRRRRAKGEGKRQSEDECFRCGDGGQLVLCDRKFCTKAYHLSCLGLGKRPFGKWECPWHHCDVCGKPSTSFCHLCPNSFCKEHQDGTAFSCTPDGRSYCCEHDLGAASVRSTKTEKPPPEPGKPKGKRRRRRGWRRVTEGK

Fibrinogen beta chain [20] = target: T6, Fibrinogen beta chain; test: Fluorescence polarization-based biochemical high throughput dose response assay to identify inhibitors that disrupt the binding of a cyclic peptide (Tn7) to the fibrin proteolytic product D-Dimer and fragment E complex [DD(E )].
[21] = target: T10, Long-chain-fatty-acid--AMP ligase FadD28 (Mycobacterium tuberculosis, UniProt P9WQ59); test: Fluorescence polarization aasay to screen for inhibitors that compete for the binding of FadD28 to a bisubstrate Measured in Biochemical System Using Plate Reader - 2147-01_Inhibitor_Dose_CherryPick_Activity.; type: functional, Mycobacterium tuberculosis H37Rv
T10 sequence (P9WQ59 whole entry): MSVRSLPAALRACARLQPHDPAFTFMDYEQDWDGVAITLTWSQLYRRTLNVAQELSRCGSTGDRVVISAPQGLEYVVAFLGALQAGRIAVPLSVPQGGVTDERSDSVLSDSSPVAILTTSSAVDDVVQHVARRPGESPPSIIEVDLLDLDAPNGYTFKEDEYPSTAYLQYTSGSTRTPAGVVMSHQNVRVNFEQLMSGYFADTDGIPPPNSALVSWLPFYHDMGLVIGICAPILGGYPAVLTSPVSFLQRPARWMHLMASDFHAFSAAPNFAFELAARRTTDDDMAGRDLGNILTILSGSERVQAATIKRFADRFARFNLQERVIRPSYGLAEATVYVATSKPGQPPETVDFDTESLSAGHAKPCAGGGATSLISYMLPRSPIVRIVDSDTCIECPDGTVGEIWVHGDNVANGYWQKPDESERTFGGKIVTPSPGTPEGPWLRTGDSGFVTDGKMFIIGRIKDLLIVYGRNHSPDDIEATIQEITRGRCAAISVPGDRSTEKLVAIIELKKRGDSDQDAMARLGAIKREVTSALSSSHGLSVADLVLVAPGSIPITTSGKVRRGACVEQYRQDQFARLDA

T2 sequence (Q8VNN2 whole entry): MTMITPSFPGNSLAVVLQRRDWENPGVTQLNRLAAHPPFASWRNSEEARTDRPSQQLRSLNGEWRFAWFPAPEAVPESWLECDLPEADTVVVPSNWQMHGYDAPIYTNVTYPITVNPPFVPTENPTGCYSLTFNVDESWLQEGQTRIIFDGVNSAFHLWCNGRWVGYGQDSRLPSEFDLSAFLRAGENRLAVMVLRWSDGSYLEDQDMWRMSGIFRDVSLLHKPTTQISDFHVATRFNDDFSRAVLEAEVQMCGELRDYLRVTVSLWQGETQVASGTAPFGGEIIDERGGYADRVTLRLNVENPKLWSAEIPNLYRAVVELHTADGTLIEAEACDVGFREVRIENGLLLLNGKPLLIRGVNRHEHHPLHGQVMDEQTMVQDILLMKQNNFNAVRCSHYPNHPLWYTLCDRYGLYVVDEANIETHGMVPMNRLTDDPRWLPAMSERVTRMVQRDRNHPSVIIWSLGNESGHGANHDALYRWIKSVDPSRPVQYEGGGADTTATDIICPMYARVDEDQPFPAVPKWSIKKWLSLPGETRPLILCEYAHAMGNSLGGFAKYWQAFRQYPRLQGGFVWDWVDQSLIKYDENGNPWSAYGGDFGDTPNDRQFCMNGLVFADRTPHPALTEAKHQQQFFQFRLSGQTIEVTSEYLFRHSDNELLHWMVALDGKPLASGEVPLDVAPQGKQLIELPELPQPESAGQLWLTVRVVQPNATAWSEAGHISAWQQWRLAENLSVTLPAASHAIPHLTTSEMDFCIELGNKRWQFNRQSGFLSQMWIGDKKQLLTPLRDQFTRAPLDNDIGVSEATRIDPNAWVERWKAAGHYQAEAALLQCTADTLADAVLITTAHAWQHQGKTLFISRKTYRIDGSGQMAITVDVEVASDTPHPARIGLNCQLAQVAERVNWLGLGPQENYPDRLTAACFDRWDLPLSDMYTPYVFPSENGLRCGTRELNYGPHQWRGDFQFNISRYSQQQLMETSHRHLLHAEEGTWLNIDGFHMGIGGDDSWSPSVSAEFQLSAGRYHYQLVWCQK
T1 sequence (P41145 whole entry): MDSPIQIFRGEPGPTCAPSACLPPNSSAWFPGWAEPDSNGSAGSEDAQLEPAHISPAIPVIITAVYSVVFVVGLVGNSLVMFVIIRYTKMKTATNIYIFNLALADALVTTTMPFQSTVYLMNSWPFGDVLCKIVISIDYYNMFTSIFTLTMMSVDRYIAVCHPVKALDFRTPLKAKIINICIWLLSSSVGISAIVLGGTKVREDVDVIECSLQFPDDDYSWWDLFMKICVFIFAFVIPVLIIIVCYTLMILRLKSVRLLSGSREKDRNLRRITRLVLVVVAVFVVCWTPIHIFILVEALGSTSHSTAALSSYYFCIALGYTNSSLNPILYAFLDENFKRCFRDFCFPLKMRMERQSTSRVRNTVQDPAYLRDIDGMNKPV
T6 sequence (P02675 whole entry, the tested form may be a part): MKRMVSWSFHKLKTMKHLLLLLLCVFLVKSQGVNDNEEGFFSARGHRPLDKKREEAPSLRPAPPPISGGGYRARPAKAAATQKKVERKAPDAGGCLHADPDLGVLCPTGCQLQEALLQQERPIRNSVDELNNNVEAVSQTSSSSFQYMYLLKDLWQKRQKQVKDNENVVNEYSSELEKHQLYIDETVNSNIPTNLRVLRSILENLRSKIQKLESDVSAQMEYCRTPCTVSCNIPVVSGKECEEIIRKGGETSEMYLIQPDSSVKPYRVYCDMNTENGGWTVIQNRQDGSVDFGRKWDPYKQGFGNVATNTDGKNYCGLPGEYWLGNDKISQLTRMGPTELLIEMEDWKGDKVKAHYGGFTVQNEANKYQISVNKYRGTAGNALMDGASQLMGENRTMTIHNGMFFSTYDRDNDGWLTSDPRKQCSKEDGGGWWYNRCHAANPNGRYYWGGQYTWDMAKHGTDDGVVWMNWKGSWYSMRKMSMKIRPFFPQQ
Sequence of Protein Rev (P04618 whole entry, the tested form may be a part): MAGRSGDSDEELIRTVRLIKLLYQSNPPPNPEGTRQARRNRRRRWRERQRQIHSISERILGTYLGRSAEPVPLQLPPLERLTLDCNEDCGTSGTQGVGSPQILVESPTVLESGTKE
Sequence of Female germline-specific tumor suppressor gld-1 (Q17339 whole entry): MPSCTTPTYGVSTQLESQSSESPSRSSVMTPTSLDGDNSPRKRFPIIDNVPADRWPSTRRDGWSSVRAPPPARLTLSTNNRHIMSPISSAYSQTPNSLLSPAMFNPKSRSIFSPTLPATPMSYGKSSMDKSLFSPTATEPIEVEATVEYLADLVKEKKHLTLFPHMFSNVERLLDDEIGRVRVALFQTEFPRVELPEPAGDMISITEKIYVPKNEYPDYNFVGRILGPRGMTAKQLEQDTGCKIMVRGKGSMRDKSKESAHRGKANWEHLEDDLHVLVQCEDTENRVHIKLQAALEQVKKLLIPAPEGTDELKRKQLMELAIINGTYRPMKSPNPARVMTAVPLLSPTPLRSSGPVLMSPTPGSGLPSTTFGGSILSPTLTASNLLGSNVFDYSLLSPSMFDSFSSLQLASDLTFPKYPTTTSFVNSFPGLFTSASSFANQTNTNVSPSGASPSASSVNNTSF
Sequence of Nonstructural protein 1 (Q194T2 whole entry): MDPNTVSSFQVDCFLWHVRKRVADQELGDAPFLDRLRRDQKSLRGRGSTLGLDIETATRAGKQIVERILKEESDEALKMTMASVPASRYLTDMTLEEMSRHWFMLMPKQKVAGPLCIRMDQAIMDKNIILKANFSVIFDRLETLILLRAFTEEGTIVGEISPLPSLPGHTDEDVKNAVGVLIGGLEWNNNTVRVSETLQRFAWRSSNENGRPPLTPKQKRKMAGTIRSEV
Sequence of Melanin-concentrating hormone receptor 1 (Q99705 whole entry): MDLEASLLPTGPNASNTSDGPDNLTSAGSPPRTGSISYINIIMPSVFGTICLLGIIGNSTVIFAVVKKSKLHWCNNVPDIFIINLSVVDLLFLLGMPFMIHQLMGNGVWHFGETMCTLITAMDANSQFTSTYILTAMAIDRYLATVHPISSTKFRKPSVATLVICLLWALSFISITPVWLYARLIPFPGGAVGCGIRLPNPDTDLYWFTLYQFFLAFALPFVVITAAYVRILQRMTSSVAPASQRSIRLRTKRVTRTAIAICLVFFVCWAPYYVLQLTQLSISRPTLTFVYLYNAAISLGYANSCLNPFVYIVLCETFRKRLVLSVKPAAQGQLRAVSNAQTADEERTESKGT
Sequence of Cystic fibrosis transmembrane conductance regulator/Golgi-associated PDZ and coiled-coil motif-containing protein (P13569 whole entry, other chains not shown): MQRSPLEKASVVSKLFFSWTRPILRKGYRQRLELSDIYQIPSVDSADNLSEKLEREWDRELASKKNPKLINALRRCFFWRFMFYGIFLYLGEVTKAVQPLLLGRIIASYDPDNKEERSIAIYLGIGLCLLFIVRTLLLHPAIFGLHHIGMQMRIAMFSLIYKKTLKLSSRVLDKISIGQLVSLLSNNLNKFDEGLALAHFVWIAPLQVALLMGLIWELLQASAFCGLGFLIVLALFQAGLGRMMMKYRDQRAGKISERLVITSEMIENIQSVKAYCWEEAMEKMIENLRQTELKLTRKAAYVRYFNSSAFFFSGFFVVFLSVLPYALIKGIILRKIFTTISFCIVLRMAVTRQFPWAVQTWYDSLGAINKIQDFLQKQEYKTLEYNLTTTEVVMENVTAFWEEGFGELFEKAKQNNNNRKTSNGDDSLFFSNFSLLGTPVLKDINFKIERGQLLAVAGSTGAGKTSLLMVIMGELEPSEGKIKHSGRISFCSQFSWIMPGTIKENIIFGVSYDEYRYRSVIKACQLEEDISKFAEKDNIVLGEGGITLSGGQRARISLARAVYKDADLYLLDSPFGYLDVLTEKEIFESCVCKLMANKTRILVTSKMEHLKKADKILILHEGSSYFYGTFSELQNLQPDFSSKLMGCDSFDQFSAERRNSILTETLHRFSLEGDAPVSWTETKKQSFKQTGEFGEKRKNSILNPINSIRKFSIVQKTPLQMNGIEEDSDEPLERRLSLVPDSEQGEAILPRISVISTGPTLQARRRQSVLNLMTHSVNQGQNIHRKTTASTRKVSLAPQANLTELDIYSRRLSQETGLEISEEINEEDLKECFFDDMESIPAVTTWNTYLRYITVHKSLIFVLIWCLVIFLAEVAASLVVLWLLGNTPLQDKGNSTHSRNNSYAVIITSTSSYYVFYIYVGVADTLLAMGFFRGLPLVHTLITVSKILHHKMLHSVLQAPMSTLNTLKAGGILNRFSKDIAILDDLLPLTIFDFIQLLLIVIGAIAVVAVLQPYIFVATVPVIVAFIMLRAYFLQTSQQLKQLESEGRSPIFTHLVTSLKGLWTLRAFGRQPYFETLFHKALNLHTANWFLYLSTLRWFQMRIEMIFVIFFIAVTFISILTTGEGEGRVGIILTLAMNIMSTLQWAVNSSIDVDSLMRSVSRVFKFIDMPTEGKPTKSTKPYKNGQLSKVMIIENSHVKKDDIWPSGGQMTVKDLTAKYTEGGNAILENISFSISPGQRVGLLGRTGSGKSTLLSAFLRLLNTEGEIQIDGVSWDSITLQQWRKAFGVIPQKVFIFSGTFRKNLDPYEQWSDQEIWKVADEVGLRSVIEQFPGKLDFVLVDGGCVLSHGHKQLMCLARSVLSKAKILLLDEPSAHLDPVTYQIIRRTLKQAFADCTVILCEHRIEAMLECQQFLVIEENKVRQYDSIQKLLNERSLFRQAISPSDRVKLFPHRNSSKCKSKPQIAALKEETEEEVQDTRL
Sequence of Protein S100-A4 (P26447 whole entry): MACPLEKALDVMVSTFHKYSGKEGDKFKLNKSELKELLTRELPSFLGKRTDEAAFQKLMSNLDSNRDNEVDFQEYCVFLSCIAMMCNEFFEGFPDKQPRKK

O=C(COc1ccccc1Cl)Nc1nnc(-c2ccc3c(c2)CCCC3)o1
EC50 [1]: 10 µM (active)

Cc1sc(NC(=O)c2ccco2)c(C(Nc2ccccn2)c2ccccc2)c1C (stereo unspecified)
AC50 [2]: 60.1 µM (active)

C/C(=N\NC(=O)C(C)Oc1ccc([N+](=O)[O-])cc1)c1ccccn1 (stereo unspecified)
IC50 [3]: 3.19 µM (active)
CC50 [4]: 8.26 µM (active)
EC50 (Beta-galactosidase [5]): > 31.5 µM (inactive)
IC50 (Nonstructural protein 1): 6.88 µM (active)
IC50 [6]: 9.48 µM (active)
IC50 (cells): 6.28 µM (active)
EC50 (Beta-galactosidase [7]): > 40 µM (inactive)
CC50 [8]: 3.54 µM (active)
AC50 (INS1): 1.12 µM (active)
IC50 [9]: > 32 µM
AC50 [10]: 2.38 µM (active)
CC50 [11]: 1.8 µM (active)
CC50 [12]: 1.54 µM (active)

COc1ccc(Oc2c(Cl)cnn(-c3cc(C(F)(F)F)cc(C(F)(F)F)c3)c2=O)cc1
IC50 [13]: 1.2 µM (active)
IC50 [14]: 1.5 µM (active)

Cn1c(=O)cc2c3c(c(N4CCCCC4)ccc31)C(=O)c1ccccc1-2
IC50 (Protein Rev): 14.2 µM (not active)
IC50 (Fibrinogen beta chain [15]): > 27.8 µM (inactive)
EC50 [16]: 25.9 µM (active)
EC50 [17]: > 300 µM (inconclusive)
IC50 [18]: 4.96 µM (active)
AC50 (Protein S100-A4): 1.72 µM (active)
AC50 [19]: 12.3 µM (active)
IC50 (Fibrinogen beta chain [20]): > 83.3 µM (inactive)
AC50 [21]: 11.8 µM (active)
